Experimental data: patent US4228239A (priority 1977, dated 1980)
In brackets after ≈: the same amount, converted by molar mass.

Tests used:
[1] = test system: Pellicularia sasakii; assay: Activity against microorganisms; format: cell-based
[2] = test system: P388 leukemia; assay: Antitumour activity upon P388 leukemia in mice; format: in vivo, mouse; settings: 0.00625 mg/kg/day, intraperitoneal, 9 consecutive days; 1×10^6 cells/animal i.p. transplanted
Description: The therapeutic effects of P-3 (dosed intraperito-nearly for 9 consecutive days) upon P388 leukemia in mice (1×10^6 cells/animal, mouse, intra-peritoneally transplanted) was investigated.

[3] = test system: Mycobacterium avium; assay: Antimicrobial activity, paper disc method; format: cell-based; settings: paper disc 8 mm, 0.02 ml of a 300 μg/ml solution, trypticase-soy agar
Experimental: (§1) With trypticase-soy agar (BBL) as an assay medium, the inhibitory concentrations against the microorganisms described below were investigated by the paper disc method. Filter-paper discs (Toyo Seisakusho, thin-type, 8 mm in dia.) each impregnated with 0.02 ml of a 300 μg/ml solution of P-3 were placed on agar plates respectively inoculated with the microorganisms described below. P-3 had no activity against the following bacteria: Escherichia coli, Proteus vulgaris, Proteus mirabilis, Pseudomonas aeruginosa, Staphylococcus aureus, Bacillus subtilis, Bacillus cereus, Klebsiella pneumoniae, Serratia marcescens, and Mycobacterium avium.

[4] = test system: Bacillus cereus; assay: Antimicrobial activity, paper disc method; format: cell-based; settings: paper disc 8 mm, 0.02 ml of a 300 μg/ml solution, trypticase-soy agar
Experimental: as §1

[5] = test system: Serratia marcescens; assay: Antimicrobial activity, paper disc method; format: cell-based; settings: paper disc 8 mm, 0.02 ml of a 300 μg/ml solution, trypticase-soy agar
Experimental: as §1

[6] = test system: Staphylococcus aureus; assay: Antimicrobial activity, paper disc method; format: cell-based; settings: paper disc 8 mm, 0.02 ml of a 300 μg/ml solution, trypticase-soy agar
Experimental: as §1

[7] = test system: Bacillus subtilis; assay: Antimicrobial activity, paper disc method; format: cell-based; settings: paper disc 8 mm, 0.02 ml of a 300 μg/ml solution, trypticase-soy agar
Experimental: as §1

[8] = test system: Klebsiella pneumoniae; assay: Antimicrobial activity, paper disc method; format: cell-based; settings: paper disc 8 mm, 0.02 ml of a 300 μg/ml solution, trypticase-soy agar
Experimental: as §1

[9] = test system: Pseudomonas aeruginosa; assay: Antimicrobial activity, paper disc method; format: cell-based; settings: paper disc 8 mm, 0.02 ml of a 300 μg/ml solution, trypticase-soy agar
Experimental: as §1

[10] = test system: Proteus vulgaris; assay: Antimicrobial activity, paper disc method; format: cell-based; settings: paper disc 8 mm, 0.02 ml of a 300 μg/ml solution, trypticase-soy agar
Experimental: as §1

[11] = test system: Escherichia coli; assay: Antimicrobial activity, paper disc method; format: cell-based; settings: paper disc 8 mm, 0.02 ml of a 300 μg/ml solution, trypticase-soy agar
Experimental: as §1

[12] = test system: Proteus mirabilis; assay: Antimicrobial activity, paper disc method; format: cell-based; settings: paper disc 8 mm, 0.02 ml of a 300 μg/ml solution, trypticase-soy agar
Experimental: as §1

[13] = test system: Cochlioborus miyabeanus; assay: Activity against microorganisms; format: cell-based
[14] = test system: Rhodotorula rubra; assay: Activity against microorganisms; format: cell-based
[15] = test system: Trichophyton rubrum; assay: Activity against microorganisms; format: cell-based
[16] = test system: Fusicladium levieri; assay: Activity against microorganisms; format: cell-based
[17] = Preliminary acute toxicity test with mice; settings: mouse, in vivo, ip, intraperitoneal injection
[18] = test system: Sclerotinia screrotiorum; assay: Activity against microorganisms; format: cell-based
[19] = test system: Pyricularia oryzae; format: cell-based
[20] = test system: Helminthosporium sigmoidium var irregulare; assay: Activity against microorganisms; format: cell-based
[21] = Solubility; format: physicochemical
[22] = test system: Cryptococcus neoformans; assay: Activity against microorganisms; format: cell-based
[23] = test system: Talaromyces avellaneus; assay: Growth inhibition of a fungus on an agar plate; format: cell-based; settings: Hamigera avellanea, pH 7.0, read-out: minimal inhibitory concentration
Experimental: On the other hand, the growth of a fungus, Talaromyces avellaneus is inhibited by P-3 on an agar plate consisting of 3.5 g disodium hydrogen phosphate, 0.5 g monopotassium dihydrogen phosphate, 5 g yeast extract (Difco), 10 g glucose, 15 g agar, 1000 ml distilled water, pH 7.0. The minimal inhibitory concentration was 3 μg/ml for P-3.

COc1cc2cc(c1Cl)N(C)C(=O)CC(OC(=O)C(C)C)C1(C)OC1C(C)C1CC(O)(NC(=O)O1)C(OC)C=CC=C(C)C2 (centres unmarked) [P-3]
activity against Pellicularia sasakii [1]: had the activity
life-span-extending ratio [2]: 168%
activity against bacteria (Mycobacterium avium) [3]: no activity
activity against bacteria (Bacillus cereus) [4]: no activity
activity against bacteria (Serratia marcescens) [5]: no activity
activity against bacteria (Staphylococcus aureus) [6]: no activity
activity against bacteria (Bacillus subtilis) [7]: no activity
activity against bacteria (Klebsiella pneumoniae) [8]: no activity
activity against bacteria (Pseudomonas aeruginosa) [9]: no activity
activity against bacteria (Proteus vulgaris) [10]: no activity
activity against bacteria (Escherichia coli) [11]: no activity
activity against bacteria (Proteus mirabilis) [12]: no activity
activity against Cochlioborus miyabeanus [13]: had the activity
activity against Rhodotorula rubra [14]: had the activity
activity against Trichophyton rubrum [15]: had the activity
activity against Fusicladium levieri [16]: had the activity
LD50 [17]: > 0.313 mg/kg
activity against Sclerotinia screrotiorum [18]: had the activity
activity against Pyricularia oryzae [19]: had the activity
activity against Helminthosporium sigmoidium var irregulare [20]: had the activity
Solubility ([21]; acetone): Soluble
Solubility ([21]; benzene): Sparingly soluble
Solubility ([21]; chloroform): Soluble
Solubility ([21]; dimethylsulfoxide): Soluble
Solubility ([21]; ethanol): Soluble
Solubility ([21]; ether): Sparingly soluble
Solubility ([21]; ethyl acetate): Soluble
Solubility ([21]; hexane): Insoluble
Solubility ([21]; methanol): Soluble
Solubility ([21]; petr.ether): Insoluble
Solubility ([21]; pyridine): Soluble
Solubility ([21]; tetrahydrofuran): Soluble
Solubility ([21]; water): Insoluble
activity against Cryptococcus neoformans [22]: had the activity
MIC [23]: 3 µg/mL (≈ 4.72 µM)
